In US12269800B2, “Delivery of therapeutic alkaloid compounds” (priority 2021, dated 2025):
Values joined by “and” are separate entries in the source; they are usually repeats but may differ in a detail not shown here. Identical values can stand only once.

Experiment: Hydrolysis Assay of Example A2, Condition 1 (SGF with pepsin, pH 1.5, 37° C.)
Format: physicochemical
Settings: for Condition 1 Conversion (%), second value of a/b: value after the slash
[1] = SGF with pepsin pH 1.5, 37° C., 0.5 mM, time 1 min
[2] = SGF with pepsin pH 1.5, 37° C., 0.5 mM, time 5 min
[3] = SGF with pepsin pH 1.5, 37° C., 0.5 mM, time 30 min
[4] = SGF with pepsin pH 1.5, 37° C., 0.5 mM, time 1 h
[5] = SGF with pepsin pH 1.5, 37° C., 0.5 mM, time 4 h
[6] = SGF with pepsin pH 1.5, 37° C., 0.5 mM, time 24 h
[7] = SGF with pepsin pH 1.5, 37° C., time 1 h
[8] = SGF with pepsin pH 1.5, 37° C., time 4 h
[9] = SGF with pepsin pH 1.5, 37° C., time 24 h
[10] = SGF with pepsin pH 1.5, 37° C., time 30 min

SMILES	Condition 1 Conversion (%) [1]	Condition 1 Conversion (%) [2]	Condition 1 Conversion (%) [3]	Condition 1 Conversion (%) [4]	Condition 1 Conversion (%) [5]	Condition 1 Conversion (%) [6]	Condition 1 Conversion (%) (pH 1.5)	Condition 1 Conversion (%), second value of a/b [7]	Condition 1 Conversion (%), second value of a/b [8]	Condition 1 Conversion (%), second value of a/b [9]	Condition 1 Conversion (%), second value of a/b (SGF with pepsin pH 1.5, 37° C., time 1 min)	Condition 1 Conversion (%), second value of a/b (SGF with pepsin pH 1.5, 37° C., time 5 min)	Condition 1 Conversion (%), second value of a/b [10]
COc1ccc([C@]23CCN(C)[C@H]2CC2(CC3)OCCS2)cc1OC (stereo partly shown) [Compound 69]	0%	0%	0%	0%	0%	0%	–	–	–	–	–	–	–
COc1ccc([C@@]23CCN(C)[C@@H]2CC2(CC3)OCCS2)cc1OC (stereo partly shown) [Compound 070]	0%	0%	0%	0%	0%	0%	–	–	–	–	–	–	–
COc1ccc([C@]23CCN(C)[C@H]2CC2(CC3)OC[C@@H](c3ccccc3)O2)cc1OC (stereo partly drawn) [Compound 081, (3′aS,4R,7′aS)-3′a-(3,4-dimethoxyphenyl)-1′-methyl-4-phenyl-spiro[1,3-dioxolane-2,6′-2,3,4,5,7,7a-hexahydroindole]]	0%	0%	0%	0%	0%	0%	–	–	–	–	–	–	–
COc1ccc([C@]23CCN(C)[C@H]2CC2(CC3)OC[C@H](c3cccnc3)O2)cc1OC (stereo partly drawn) [Compound 109, (3′aS,7′aS)-3′a-(3,4-dimethoxyphenyl)-1′-methyl-4-(3-pyridyl)spiro[1,3-dioxolane-2,6′-2,3,4,5,7,7a-hexahydroindole]]	0%	0%	0%	0%	0%	0%	–	–	–	–	–	–	–
COc1ccc([C@]23CCN(C)[C@H]2CC2(CC3)OCC(c3ccncc3)O2)cc1OC (stereo partly drawn) [Compound 110, (3′aS,7′aS)-3′a-(3,4-dimethoxyphenyl)-1′-methyl-4-(4-pyridyl)spiro[1,3-dioxolane-2,6′-2,3,4,5,7,7a-hexahydroindole]]	0%	0%	0%	0%	0%	0%	–	–	–	–	–	–	–
COc1cccc(C2COC3(CC[C@@]4(c5ccc(OC)c(OC)c5)CCN(C)[C@H]4C3)O2)c1 (stereo partly drawn) [Compound 111, (3′aS,7′aS)-3′a-(3,4-dimethoxyphenyl)-4-(3-methoxyphenyl)-1′-methyl-spiro[1,3-dioxolane-2,6′-2,3,4,5,7,7a-hexahydroindole]]	0%	0%	0%	0%	0%	0%	–	–	–	–	–	–	–
COc1ccc([C@]23CCN(C)[C@H]2CC2(CC3)OCC(c3cccc([N+](=O)[O-])c3)O2)cc1OC (stereo partly drawn) [Compound 113, (3′aS,7′aS)-3′a-(3,4-dimethoxyphenyl)-1′-methyl-4-(3-nitrophenyl)spiro[1,3-dioxolane-2,6′-2,3,4,5,7,7a-hexahydroindole]]	0%	0%	0%	0%	0%	0%	–	–	–	–	–	–	–
COc1ccc([C@@]23CCC(=NNCCc4ccccc4)C[C@@H]2N(C)CC3)cc1OC [Compound 159, N-[[(3aS,7aS)-3a-(3,4-dimethoxyphenyl)-1-methyl-2,3,4,5,7,7a-hexahydroindol-6-ylidene]amino]-2-phenyl-ethanamine]	–	–	–	–	–	–	77% and 91% and 100% (2×)	–	–	–	–	–	–
COc1ccc([C@@]23CCC(=NNC(N)=O)C[C@@H]2N(C)CC3)cc1OC [Compound 197, [[(3aS,7aS)-3a-(3,4-dimethoxyphenyl)-1-methyl-2,3,4,5,7,7a-hexahydroindol-6-ylidene]amino]urea]	–	–	–	–	–	–	0%	–	–	–	–	–	–
COc1ccc([C@@]23CCC(=NOCC(=O)OC(C)(C)C)C[C@@H]2N(C)CC3)cc1OC [Compound 202, tert-butyl 2-[[(3aS,7aS)-3a-(3,4-dimethoxyphenyl)-1-methyl-2,3,4,5,7,7a-hexahydroindol-6-ylidene]amino]oxyacetate]	–	–	–	1.12%	3.01%	64.4%	–	0%	6.42%	6.42%	–	–	–
COc1ccc([C@@]23CC/C(=N\OC(C)(C)OC)C[C@@H]2N(C)CC3)cc1OC [Compound 204, (E,3aS,7aS)-3a-(3,4-dimethoxyphenyl)-N-(1-methoxy-1-methyl-ethoxy)-1-methyl-2,3,4,5,7,7a-hexahydroindol-6-imine]	100%	100%	0%	0%	0%	0%	–	100%	100%	100%	0%	0%	100%
COc1ccc([C@@]23CCC(=NOC4CCCCO4)C[C@@H]2N(C)CC3)cc1OC (stereo partly drawn) [Compound 206, (3aS,7aS)-3a-(3,4-dimethoxyphenyl)-1-methyl-N-tetrahydropyran-2-yloxy-2,3,4,5,7,7a-hexahydroindol-6-imine]	–	–	1.41%	7.83%	0%	0%	–	2.57%	77.75%	100%	–	–	0%
COc1ccc([C@]23CCN(C)[C@H]2CC2(CC3)OCC(C)O2)cc1OC (stereo partly drawn) [Compound 211, (3′aS,7′aS)-3′a-(3,4-dimethoxyphenyl)-1′,4-dimethyl-spiro[1,3-dioxolane-2,6′-2,3,4,5,7,7a-hexahydroindole]]	0%	0%	0%	0%	0%	0%	–	–	–	–	–	–	–
C=CC1OC2(CC[C@@]3(c4ccc(OC)c(OC)c4)CCN(C)[C@H]3C2)OC1C=C (stereo partly drawn) [Compound 213, (3′aS,7′aS)-3′a-(3,4-dimethoxyphenyl)-1′-methyl-4,5-divinyl-spiro[1,3-dioxolane-2,6′-2,3,4,5,7,7a-hexahydroindole]]	0%	0%	0%	0%	0%	0%	–	–	–	–	–	–	–
COc1ccc([C@]23CCN(C)[C@H]2CC2(CC3)OCC(COCc3ccccc3)O2)cc1OC (stereo partly shown) [Compound 215]	0%	0%	6.1%	15.2%	25.8%	46.8%	–	–	–	–	–	–	–
